Reference: article PMC7366380, “Discovery of a Potent and Selective Covalent Inhibitor and Activity-Based Probe for the Deubiquitylating Enzyme UCHL1, with Antifibrotic Activity” (Journal of the American Chemical Society, 2020)
Entries after “also recorded” stand apart in the source; their conditions may differ. Values belong to the compound of their own block, whether it stands above or below them.

Columns and labels:
UCHL1 [1] = biological target: T1, UCHL1 (Homo sapiens, UniProt P09936); conditions: HEK293T, 1 h treatment, immunoblot
T1 sequence (P09936 1-223): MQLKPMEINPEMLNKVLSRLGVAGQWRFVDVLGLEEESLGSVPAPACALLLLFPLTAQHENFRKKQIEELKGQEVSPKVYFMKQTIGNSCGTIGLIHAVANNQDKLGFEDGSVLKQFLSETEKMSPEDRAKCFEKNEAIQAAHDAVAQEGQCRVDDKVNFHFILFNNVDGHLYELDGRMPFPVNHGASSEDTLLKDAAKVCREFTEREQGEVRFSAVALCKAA

UCHL1 [2] = biological target: T1, UCHL1; experiment: UCHL1 covalent adduct site identification (tryptic digest, nanoLC-MS/MS, PEAKS); type: binding; design: (residues 1-223, Uniprot P09936); GST (N, cleaved yes); made in house; host or cells: E. coli Rosetta 2(DE3), pGEX-6P-1; conditions: for site of UCHL1 modification: UCHL1 5 μM, compound 13 μM, 1 h, tryptic digest
Experimental: b) 2 modification: 96% peptide sequence coverage
Figure S9. Identification of modification sites by nanoLC-MS/MS.
Recombinant UCHL1 (5 µM) was incubated with compound 1 or 2 (13 µM) for 1 h at room temperature. The labeled protein was digested with trypsin and analyzed by nanoLC-MS/MS.
The data was processed in PEAKS 8.0. 82% and 96% of UCHL1 peptide sequence coverage for (a) 1, or (b) 2 modification, respectively. The high confidence modification of compound 1 […]
Statistical data and peptide lists from PEAKS are detailed in Supplementary Data S1. […]
values were plotted against compound concentration to afford the apparent second order rate constant for inhibition, ka/I. The absolute value of the second order rate constant kobs/I was […]
Reversible inhibition assay: Jump dilution assays were performed by incubating UCHL1 […]
negative controls (iodoacetamide (IAA) 10 mM) for 30 min at room temperature. The reaction […]
intensity read immediately for 1 h.
UCHL1 covalent adduct determination […]
pH 7.5) was incubated with compound 1, 2 (2.5 equiv.) or DMSO for 1 h at room temperature.
The excess ligand was removed by washing with buffer D in an Amicon® Ultra MWCO 10 kDa centrifugation spin filter three times. The protein-adducts were desalted using 3× SDB-XC polystyrene-divinylbenzene copolymer extraction disks, following published methods.5 Samples were eluted with 50% (v/v) MeCN 0.5% (v/v) formic acid in LC-MS grade water and analyzed by LC-ESI (ACQUITY UPLC H-Class PLUS instrument (Waters)) using an ACQUITY UPLC BEH C4 column (Waters) coupled with Waters LCT Premier MS detector.
UCHL1 covalent adduct site identification
Compound-protein adduct samples were prepared as described above and digested with trypsin (Promega, 1:50 trypsin:UCHL1 ratio) at 37 °C, overnight. […]
The MS data was analyzed by PEAKS Studio 8.5 (Bioinformatics Solutions Inc.). […]
Homogeneous time resolved fluorescence (HTRF) assay […]
BME) and incubated for 30 min at room temperature. […] The plates were sealed and incubated overnight at 4 °C then read using a PHERAstar (BMG), and the Delta F calculated: […]

[3] = test system: HEK293 cells whole proteome; experiment: Whole proteome analysis (no enrichment) of HEK293 cells treated with ABP 2, TMT; type: cell-based, human
FGFR2 = FGFR2 (Homo sapiens, UniProt P21802); experiment: ABP 2 labeling in HEK293 cells, pulldown and FGFR2 immunoblotting; conditions: HEK293, any concentration up to 2 μM
Chain of FGFR2 (P21802 22-821): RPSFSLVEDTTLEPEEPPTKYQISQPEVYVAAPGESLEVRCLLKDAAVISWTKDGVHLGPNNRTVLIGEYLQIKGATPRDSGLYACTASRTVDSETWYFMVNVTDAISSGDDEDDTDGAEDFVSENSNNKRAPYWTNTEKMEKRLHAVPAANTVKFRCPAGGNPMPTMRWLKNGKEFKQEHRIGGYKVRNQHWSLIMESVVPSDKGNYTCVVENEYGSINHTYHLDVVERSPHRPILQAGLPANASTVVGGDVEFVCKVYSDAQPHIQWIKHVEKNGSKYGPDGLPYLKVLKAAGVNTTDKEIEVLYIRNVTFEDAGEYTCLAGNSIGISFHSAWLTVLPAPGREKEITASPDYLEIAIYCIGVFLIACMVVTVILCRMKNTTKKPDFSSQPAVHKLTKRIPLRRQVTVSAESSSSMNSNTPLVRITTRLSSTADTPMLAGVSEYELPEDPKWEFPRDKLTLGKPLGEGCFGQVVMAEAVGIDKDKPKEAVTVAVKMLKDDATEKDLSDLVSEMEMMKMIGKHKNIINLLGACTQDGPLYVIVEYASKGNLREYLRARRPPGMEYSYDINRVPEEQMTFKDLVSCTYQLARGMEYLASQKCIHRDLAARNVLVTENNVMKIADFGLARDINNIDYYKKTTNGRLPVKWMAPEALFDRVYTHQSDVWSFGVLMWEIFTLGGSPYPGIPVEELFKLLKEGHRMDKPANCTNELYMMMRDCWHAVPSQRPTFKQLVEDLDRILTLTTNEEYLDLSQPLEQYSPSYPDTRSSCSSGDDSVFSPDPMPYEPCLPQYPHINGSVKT

[4] = ABP 2 stability in cell culture medium (in-gel fluorescence readout); conditions: DMEM medium, 37 °C, then 1 h on HEK293 cells
[5] = test system: FLAG-UCHL1 (WT, C90A, C90S); conditions: HeLa cells overexpressing FLAG-UCHL1, 1 h
[6] = test system: primary human bronchial fibroblasts from IPF patients
[7] = whole proteome, no enrichment, HEK293, 0.02 μM vs DMSO, 1 h
[8] = whole proteome, no enrichment, HEK293, 0.2 μM vs DMSO, 1 h
[9] = whole proteome, no enrichment, HEK293, 2 μM vs DMSO, 1 h

in-cell competition for HA-Ub-VME labeling of UCHL1 (UCHL1 [1]): concentration-dependent competition
SMILES: N#CN1CCC[C@H]1C(=O)N1CCc2c(-c3c[nH]c4ncccc34)cccc21 [Compound 1]
site of UCHL1 modification (UCHL1 [2]): catalytic cysteine 90; also recorded: catalytic cysteine (Cys90)

FGFR2 enrichment by pulldown and immunoblotting (FGFR2): barely detectable | in-cell competition for HA-Ub-VME labeling of UCHL1 (UCHL1 [1]): concentration-dependent competition | stability in media without loss of activity [4]: > 72 h
SMILES: C#Cc1cnc2[nH]cc(-c3cccc4c3CCN4C(=O)[C@@H]3CCCN3C#N)c2c1 [Compound 2]
abundance change in whole proteome analysis ([3]; HEK293, 20, 200 or 2000 nM, 60 min): No significant abundance change | Log2 t-test Difference, AAAS, ABP 2 -0.02 μM [3, 7]: 0.04017 | Log2 t-test Difference, AACS, ABP 2 -0.02 μM [3, 7]: -0.01983 | Log2 t-test Difference, AAGAB, ABP 2 -0.02 μM [3, 7]: 0.05728 | Log2 t-test Difference, AAMP, ABP 2 -0.02 μM [3, 7]: -0.03986 | Log2 t-test Difference, AAAS, ABP 2 -0.2 μM [3, 8]: -0.001777 | Log2 t-test Difference, AACS, ABP 2 -0.2 μM [3, 8]: 0.03866 | Log2 t-test Difference, AAGAB, ABP 2 -0.2 μM [3, 8]: 0.002598 | Log2 t-test Difference, AAMP, ABP 2 -0.2 μM [3, 8]: 0.04194 | Log2 t-test Difference, AAAS, ABP 2 -2 μM [3, 9]: 0.07218 | Log2 t-test Difference, AACS, ABP 2 -2 μM [3, 9]: 0.09255 | Log2 t-test Difference, AAGAB, ABP 2 -2 μM [3, 9]: 0.1494 | Log2 t-test Difference, AAMP, ABP 2 -2 μM [3, 9]: -0.01217 | labeling of WT versus C90A/C90S UCHL1 [5]: only WT UCHL1 is labeled | site of UCHL1 modification (UCHL1 [2]): catalytic cysteine 90; also recorded: catalytic cysteine (Cys90) | Peptide carrying the compound 2 modification (C, +381.16) (UCHL1 [2]; recombinant UCHL1 (P09936) treated with compound 2, tryptic digest, PEAKS, PTM code n = Compound 2 modification (C)): QTIGNSC(+381.16)GTIGLIHAVANNQDKLGFEDGSVLK; also recorded: QTIGNSC(+381.16)GTIGLIHAVANNQDK; also recorded: QTIGNSC(+381.16)GTIGLIHAVANNQDKLGFEDGSVLKQFLSETEK

SMILES: CC(=O)O/N=C1\C(=O)N(Cc2cc(Cl)ccc2Cl)c2ccc(Cl)cc21 [LDN-57444, reference compound]
cytotoxicity (in words) [6]: increased cytotoxicity
